Assays:
Details in all cases: 72 h
Caco-2 [1] = assay: cell viability relative to DMSO; higher = less toxic
Calu-3 [2] = assay: as above
HepG2 [3] = assay: as above
U2OS [4] = assay: as above
Vero E6 [5] = assay: as above
Caco-2 [6] = assay: relative viability EC50 (midpoint between 100% and the lowest measured viability); higher = less toxic
Calu-3 [7] = assay: as above
HepG2 [8] = assay: as above
U2OS [9] = assay: as above
Vero E6 [10] = assay: as above
Caco-2 [11] = assay: drug sensitivity score (DSS) for viability; higher = more toxic; extreme values may be limits of the assay
Calu-3 [12] = assay: as above
HepG2 [13] = assay: as above
U2OS [14] = assay: as above
Vero E6 [15] = assay: as above

Compound | cell viability (Caco-2 [1]; 1 nM) | cell viability (Caco-2 [1]; 10 nM) | cell viability (Caco-2 [1]; 100 nM) | cell viability (Caco-2 [1]; 1000 nM) | cell viability (Caco-2 [1]; 10000 nM) | cell viability (Calu-3 [2]; 1 nM) | cell viability (Calu-3 [2]; 10 nM) | cell viability (Calu-3 [2]; 100 nM) | cell viability (Calu-3 [2]; 1000 nM) | cell viability (Calu-3 [2]; 10000 nM) | cell viability (HepG2 [3]; 1 nM) | cell viability (HepG2 [3]; 10 nM) | cell viability (HepG2 [3]; 100 nM) | cell viability (HepG2 [3]; 1000 nM) | cell viability (HepG2 [3]; 10000 nM) | cell viability (U2OS [4]; 1 nM) | cell viability (U2OS [4]; 10 nM) | cell viability (U2OS [4]; 100 nM) | cell viability (U2OS [4]; 1000 nM) | cell viability (U2OS [4]; 10000 nM) | cell viability (Vero E6 [5]; 1 nM) | cell viability (Vero E6 [5]; 10 nM) | cell viability (Vero E6 [5]; 100 nM) | cell viability (Vero E6 [5]; 1000 nM) | cell viability (Vero E6 [5]; 10000 nM) | relative viability EC50 (Caco-2 [6]) | relative viability EC50 (Calu-3 [7]) | relative viability EC50 (HepG2 [8]) | relative viability EC50 (U2OS [9]) | relative viability EC50 (Vero E6 [10]) | drug sensitivity score (Caco-2 [11]) | drug sensitivity score (Calu-3 [12]) | drug sensitivity score (HepG2 [13]) | drug sensitivity score (U2OS [14]) | drug sensitivity score (Vero E6 [15])
Cc1cccc(C)c1-n1c(=O)c2cnc(Nc3ccc(N4CCN(C)CC4)cc3)nc2n2c3ccccc3nc12 [TC-S-7003] | 88.3% | 87.9% | 88.3% | 66.1% | 11.6% | 106% | 101% | 95.6% | 70.5% | 5.2% | 98% | 101% | 82% | 58.6% | 9% | 97% | 98.2% | 91.8% | 56.5% | 0.4% | 96.9% | 97.4% | 71.7% | 54.6% | 10.6% | 1.31 µM | 1.4 µM | 0.915 µM | 1.15 µM | 0.527 µM | 8.7 | 9.4 | 10.5 | 10.5 | 12.6
COc1ncc2cc(C(=O)Nc3cc(C(=O)NCc4cccc(Cl)c4)ccc3Cl)c(=O)[nH]c2n1 [TC-S-7004] | 111% | 107% | 99.6% | 98.6% | 95% | 94.8% | 94.8% | 105% | 104% | 104% | 98.6% | 97.4% | 100% | 87.7% | 101% | 98.8% | 102% | 103% | 103% | 99.1% | 104% | 101% | 102% | 100% | 95% | > 10 µM | > 10 µM | > 10 µM | > 10 µM | > 10 µM | 0 | 0 | 0 | 0 | 0
CCCCCCC(=O)OC1CC(C)(C)NC(C)(C)C1 [TMPH] | 106% | 99.4% | 99.3% | 103% | 102% | 102% | 89.7% | 96% | 108% | 98.7% | 109% | 93.5% | 99.5% | 92.9% | 106% | 99.7% | 101% | 98.9% | 99.6% | 99.1% | 99% | 96.4% | 101% | 95.2% | 98.4% | > 10 µM | > 10 µM | > 10 µM | > 10 µM | > 10 µM | 0 | 0 | 0 | 0 | 0

Source: the supplement of paper PMC13380429
